Measured values from ChEMBL document CHEMBL3091347, “Comparison of Multiple Linear Regressions and Neural Networks based QSAR models for the design of new antitubercular compounds” (Eur J Med Chem, 2013).
Values after ≈ are worked out from the molar mass of the structure shown.

Columns and labels:
[1] = system: Mycobacterium tuberculosis; experiment: Antitubercular activity against Mycobacterium tuberculosis BCG; type: functional
[2] = Lipophilicity, log P of the compound; details: octanol/water

Row | SMILES | MIC [1] [mg/L] | log(1/MIC) [1] | logP ([2]; logP) | logP [2]
1 | NNC(=O)c1ccc([N+](=O)[O-])cc1 | 12 (≈ 66.2 µM) | -1.079 | -1.1 | –
2 | NNC(=O)/C=C/c1ccccc1 | 0.4 (≈ 2.47 µM) | 0.3979 | -1.23 | –
3 | NNC(=O)C1CCNCC1 | 600 (≈ 4190 µM) | -2.778 | -3.46 | –
4 | NNC(=O)c1ccc(O)cc1 | 12 (≈ 78.9 µM) | -1.079 | – | -1.51
5 | NNC(=O)c1ccc(Br)cc1 | 12 (≈ 55.8 µM) | -1.079 | 0.018 | –
6 | COc1cc(C(=O)NN)ccc1O | 30 (≈ 165 µM) | -1.477 | -1.79 | –
7 | NNC(=O)c1cccc(N)c1 | 3 (≈ 19.8 µM) | -0.4771 | -2.07 | –
8 | NNC(=O)c1ccncc1N | 1.5 (≈ 9.86 µM) | -0.1761 | -3.12 | –
9 | NNC(=O)c1ccc(Cl)cc1 | 3 (≈ 17.6 µM) | -0.4771 | – | -0.132
10 | NNC(=O)c1ccccc1N | 30 (≈ 198 µM) | -1.477 | -2.07 | –
11 | NNC(=O)Cc1ccncc1 | 100 (≈ 662 µM) | -2 | -2.69 | –
12 | Cc1ccc(C)n1NC(=O)c1ccco1 | 15 (≈ 73.4 µM) | -1.176 | 3.04 | –
13 | O=C(NNS(=O)(=O)c1ccc([N+](=O)[O-])cc1)c1ccncc1 | 60 (≈ 186 µM) | -1.778 | -1.54 | –
14 | O=C(NNS(=O)(=O)c1ccccc1)c1ccncc1 | 3 (≈ 10.8 µM) | -0.4771 | -1.29 | –
15 | COc1ccc(C(=O)NN)cc1 | 8 (≈ 48.1 µM) | -0.9031 | – | –
16 | NNC(=O)c1ccc(N)cc1 | 6 (≈ 39.7 µM) | -0.7782 | – | -2.07
17 | O=C(NNC(=O)c1ccncc1)c1ccncc1 | 8 (≈ 33 µM) | -0.9031 | – | -2.984
18 | CC(C)N(N)C(=O)c1ccco1 | 15 (≈ 89.2 µM) | -1.176 | 0.115 | –
19 | CCCCC/C(C)=N\NC(=O)c1cccs1 | 3 (≈ 12.6 µM) | -0.4771 | 1.71 | –
20 | O=C(NN=C1CCCCC1)c1cccs1 | 3 (≈ 13.5 µM) | -0.4771 | 0.789 | –
21 | CNC1C(OC2C(OC3C(O)C(O)C(NC(=N)N)C(O)C3NC(=N)N)OC(C)C2(O)/C=N/NC(=O)c2cccs2)OC(CO)C(O)C1O (configuration not stated) | 0.25 (≈ 0.354 µM) | 0.6021 | – | –
22 | NNC(=O)c1ccc(Br)o1 | 12 (≈ 58.5 µM) | -1.079 | 1.62 | –

Row | SMILES | MIC [1] [mg/L] | log(1/MIC) [1] | logP ([2]; logP) | logP [2]
23 | NNC(=O)c1ccc(C(=O)NN)o1 | 6 (≈ 32.6 µM) | -0.7782 | -1.63 | –
24 | NNC(=O)/C=C/c1ccco1 | 3 (≈ 19.7 µM) | -0.4771 | -2.02 | –
25 | CC(C)(C#N)NNC(=O)c1ccco1 | 3 (≈ 15.5 µM) | -0.4771 | 1.21 | –
26 | CC(C)=NNC(=O)c1ccco1 | 4 (≈ 24.1 µM) | -0.6021 | 0.656 | –
27 | CC(=O)Nc1ccc(/C=N\NC(=O)c2ccco2)cc1 | 4.5 (≈ 16.6 µM) | -0.6532 | 2.64 | –
28 | NNC(=O)c1cc2ccccc2o1 | 2 (≈ 11.4 µM) | -0.301 | 0.835 | –
29 | NNC(=O)c1ccsc1 | 8 (≈ 56.3 µM) | -0.9031 | -1.2 | –
30 | NNC(=O)Cc1ccsc1 | 100 (≈ 640 µM) | -2 | -1.57 | –
31 | CC(C)/C=N/NC(=O)c1cccs1 | 1.2 (≈ 6.11 µM) | -0.07918 | 0.125 | –
32 | CCCCCC/C=N/NC(=O)c1cccs1 | 6 (≈ 25.2 µM) | -0.7782 | 1.84 | –
33 | NNC(=O)c1ccc(C(=O)NN)cc1 | 3 (≈ 15.4 µM) | -0.4771 | -3.83 | –
34 | NNC(=O)C(O)(c1ccccc1)c1ccccc1 | 100 (≈ 413 µM) | -2 | 0.196 | –
35 | CCCCCCCCCCCCNNC(=O)c1ccncc1 | 0.05 (≈ 0.164 µM) | 1.301 | 3.64 | –
36 | O=C(NNCc1ccco1)c1ccncc1 | 15 (≈ 69.1 µM) | -1.176 | -0.641 | –
37 | CC(=O)N1CCC(C(=O)NN)CC1 | 6 (≈ 32.4 µM) | -0.7782 | -3.98 | –
38 | CC(=O)NN | 150 (≈ 2020 µM) | -2.176 | -2.78 | –
39 | NNC(=O)CCC(=O)NN | 25 (≈ 171 µM) | -1.398 | – | –
40 | NNC(=O)CCCCCCCCCCC(=O)NN | 3 (≈ 11.6 µM) | -0.4771 | -2.03 | –
41 | NNC(=O)C1CCC(C(=O)NN)CC1 (configuration not stated) | 300 (≈ 1500 µM) | -2.477 | – | -4.55
42 | NNC(=O)c1ccc(I)cc1 | 6 (≈ 22.9 µM) | -0.7782 | 0.278 | –
43 | CN(C)c1ccc(C(=O)NN)cc1 | 6 (≈ 33.5 µM) | -0.7782 | -0.65 | –
44 | O=C(N/N=C(\CO)C(O)C(O)C(O)CO)c1ccncc1 (configuration not stated) | 0.06 (≈ 0.2 µM) | 1.222 | – | –

Row | SMILES | MIC [1] [mg/L] | log(1/MIC) [1] | logP ([2]; logP) | logP [2]
45 | O=C(N/N=C/C(O)C(O)C(OC1OC(CO)C(O)C(O)C1O)C(O)CO)c1ccncc1 (configuration not stated) | 0.15 (≈ 0.325 µM) | 0.8239 | – | –
46 | Cc1ccc(C)n1NC(=O)c1ccncc1 | 10 (≈ 46.5 µM) | -1 | 0.854 | –
47 | O=CNNC(=O)c1ccncc1 | 3 (≈ 18.2 µM) | -0.4771 | -2.99 | –
48 | CCCCCC/C=N/NC(=O)c1ccncc1 | 0.03 (≈ 0.129 µM) | 1.523 | 0.719 | –
49 | C/C=C/CCCCCCC/C=N/NC(=O)c1ccncc1 | 0.15 (≈ 0.522 µM) | 0.8239 | 2.29 | –
50 | CCCCCCCCCC/C=N/NC(=O)c1ccncc1 | 0.3 (≈ 1.04 µM) | 0.5229 | 2.83 | –
51 | CC1CCC(=NNC(=O)c2ccncc2)CC1 (configuration not stated) | 0.07 (≈ 0.303 µM) | 1.1549 | 0.315 | –
52 | CC(C)COc1ccc(/C=N/NC(=O)c2ccncc2)cc1 | 0.2 (≈ 0.673 µM) | 0.699 | 2.81 | –
53 | CC(C)CCOc1ccc(/C=N/NC(=O)c2ccncc2)cc1 | 0.05 (≈ 0.161 µM) | 1.301 | 3.34 | –
54 | N/N=C(\CC(=O)c1ccncc1)C(=O)c1ccncc1 | 15 (≈ 55.9 µM) | -1.176 | -3.16 | –
55 | CC(C(=O)c1ccncc1)C(/C=N/N)C(=O)c1ccncc1 (configuration not stated) | 0.5 (≈ 1.69 µM) | 0.301 | -2.43 | –
56 | CC(=O)C/C(C)=N/NC(=O)c1ccncc1 | 0.8 (≈ 3.65 µM) | 0.09691 | -3.02 | –
57 | O=C(N/N=C/C(O)C(O)C(O)CO)c1ccncc1 (configuration not stated) | 0.05 (≈ 0.186 µM) | 1.301 | – | -5.33
58 | O=C(N/N=C\C(O)C(O)C(O)C(O)CO)c1ccncc1 (configuration not stated) | 0.15 (≈ 0.501 µM) | 0.8239 | – | –
59 | CC(=O)Nc1ccc(/C=N\NC(=O)c2ccncc2)cc1 | 0.08 (≈ 0.283 µM) | 1.097 | 0.457 | –
60 | CCC(CC)NNC(=O)c1ccncc1 | 3 (≈ 14.5 µM) | -0.4771 | -0.19 | –
61 | O=C(NNC1CCCCC1)c1ccncc1 | 5 (≈ 22.8 µM) | -0.699 | -0.055 | –
62 | CC1CCCC(NNC(=O)c2ccncc2)C1 (configuration not stated) | 4 (≈ 17.1 µM) | -0.6021 | 0.464 | –
63 | CC1CCC(NNC(=O)c2ccncc2)CC1 (configuration not stated) | 5 (≈ 21.4 µM) | -0.699 | 0.594 | –
64 | NNC(=O)C(O)c1ccccc1 (configuration not stated) | 40 (≈ 241 µM) | -1.602 | -1.37 | –
65 | NNC(=O)Cc1ccc(Cl)cc1 | 10 (≈ 54.2 µM) | -1 | -0.503 | –
66 | NNC(=O)C1Cc2ccccc2O1 (configuration not stated) | 22.5 (≈ 126 µM) | -1.352 | -1.32 | –
